Laboratory results taken from PMC2701352 (Biochemical pharmacology, 2008).
Entries after “also recorded” stand apart in the source; their conditions may differ.

What was measured:
hMC4R/TM3 hMC1R = hMC4R/TM3 hMC1R (Homo sapiens, UniProt P32245+Q01726); experiment: cAMP production, hMC4R/TM3hMC1R chimera
hMC1R WT = hMC1R WT (Homo sapiens, UniProt Q01726); experiment: cAMP production, hMC1R WT in HEK-293 cells; format: cell-based
hMC4R/TM6 hMC1R = hMC4R/TM6 hMC1R (Homo sapiens, UniProt P32245+Q01726); experiment: cAMP production, hMC4R/TM6hMC1R chimera
hMC4R/TM6 hMC1R, sequence (P32245 1-251 limits assumed, other chains not shown): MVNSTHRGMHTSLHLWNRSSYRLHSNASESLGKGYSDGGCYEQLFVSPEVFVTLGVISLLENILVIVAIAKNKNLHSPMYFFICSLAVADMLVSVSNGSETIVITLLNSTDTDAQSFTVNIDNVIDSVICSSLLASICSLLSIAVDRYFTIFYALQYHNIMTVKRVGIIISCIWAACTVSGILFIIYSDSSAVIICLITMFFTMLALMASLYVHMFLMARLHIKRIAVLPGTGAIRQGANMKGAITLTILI
hMC4R/TM6 hMC1R, sequence (P32245 271-332 limits assumed, other chains not shown): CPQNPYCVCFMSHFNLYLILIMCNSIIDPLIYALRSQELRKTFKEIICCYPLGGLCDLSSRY

hMC4R/TM2 hMC1R = hMC4R/TM2 hMC1R (Homo sapiens, UniProt P32245, A89S/G98V/I102A/M91L/S85C/S99L/V88L/V95G); experiment: cAMP production, hMC4R/TM2hMC1R chimera; format: cell-based
hMC4R/TM2 hMC1R, sequence (P32245 whole entry S85C/V88L/A89S/M91L/V95G/G98V/S99L/I102A): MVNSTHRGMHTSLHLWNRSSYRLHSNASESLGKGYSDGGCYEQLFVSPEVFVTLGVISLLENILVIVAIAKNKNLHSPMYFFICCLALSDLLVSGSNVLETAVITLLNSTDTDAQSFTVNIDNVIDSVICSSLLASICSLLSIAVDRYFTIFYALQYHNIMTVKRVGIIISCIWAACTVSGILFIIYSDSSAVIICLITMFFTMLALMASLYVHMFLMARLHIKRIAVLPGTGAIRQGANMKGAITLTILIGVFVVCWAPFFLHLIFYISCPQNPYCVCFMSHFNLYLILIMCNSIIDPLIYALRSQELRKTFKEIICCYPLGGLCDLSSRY

hMC4R/TM5 hMC1R = experiment: cAMP production, hMC4R/TM5hMC1R chimera; conditions: Fig. 4B, 4D
hMC4R/TM4 hMC1R = hMC4R/TM4 hMC1R (Homo sapiens, UniProt P32245+Q01726); experiment: cAMP production, hMC4R/TM4hMC1R chimera
hMC4R/TM4 hMC1R, sequence (P32245 1-172 limits assumed, other chains not shown): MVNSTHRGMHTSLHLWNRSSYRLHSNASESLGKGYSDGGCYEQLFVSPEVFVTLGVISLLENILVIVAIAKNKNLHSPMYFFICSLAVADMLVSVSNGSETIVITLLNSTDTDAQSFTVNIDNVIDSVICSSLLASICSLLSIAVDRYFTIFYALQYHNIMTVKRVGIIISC
hMC4R/TM4 hMC1R, sequence (P32245 188-332 limits assumed, other chains not shown): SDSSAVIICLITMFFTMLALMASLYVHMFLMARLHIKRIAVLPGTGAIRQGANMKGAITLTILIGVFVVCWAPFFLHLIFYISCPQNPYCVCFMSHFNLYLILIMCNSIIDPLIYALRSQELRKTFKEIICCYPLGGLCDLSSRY

hMC4R WT = hMC4R WT (Homo sapiens, UniProt P32245); experiment: cAMP production, hMC4R WT in HEK-293 cells; format: cell-based
hMC4R WT, sequence (P32245 whole entry): as the sequence (P32245 whole entry S85C/V88L/A89S/M91L/V95G/G98V/S99L/I102A) above, with C85S, L88V, S89A, L91M, G95V, V98G, L99S, A102I counted along it

hMC1R WT, sequence (Q01726 whole entry): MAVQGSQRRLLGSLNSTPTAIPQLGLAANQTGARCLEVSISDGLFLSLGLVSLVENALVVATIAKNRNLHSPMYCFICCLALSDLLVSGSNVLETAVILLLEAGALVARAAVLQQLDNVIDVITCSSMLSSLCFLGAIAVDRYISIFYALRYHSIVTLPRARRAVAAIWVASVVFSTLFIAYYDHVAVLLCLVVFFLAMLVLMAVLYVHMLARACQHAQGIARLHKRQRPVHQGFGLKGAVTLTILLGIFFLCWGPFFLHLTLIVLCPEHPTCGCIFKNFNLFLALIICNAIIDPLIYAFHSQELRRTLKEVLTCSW
hMC4R/TM3 hMC1R, sequence (P32245 1-121 limits assumed): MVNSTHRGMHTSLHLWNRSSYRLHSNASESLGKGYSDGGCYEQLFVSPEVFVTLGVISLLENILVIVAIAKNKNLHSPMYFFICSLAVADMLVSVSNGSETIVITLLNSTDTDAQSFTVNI
hMC4R/TM3 hMC1R, sequence (Q01726 117-137 limits assumed): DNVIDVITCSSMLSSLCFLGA
hMC4R/TM3 hMC1R, sequence (P32245 143-332 limits assumed): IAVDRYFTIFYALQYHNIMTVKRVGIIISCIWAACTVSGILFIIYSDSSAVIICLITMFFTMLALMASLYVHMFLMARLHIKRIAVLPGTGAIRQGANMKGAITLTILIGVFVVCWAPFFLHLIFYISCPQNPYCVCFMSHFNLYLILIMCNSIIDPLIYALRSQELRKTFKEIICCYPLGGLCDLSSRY

## CCCC[C@H](NC(=O)[C@@H](NC(=O)[C@@H](N)Cc1ccc(O)cc1)C(C)C)C(=O)NCC(=O)N1CCC[C@H]1C(=O)N[C@H](Cc1ccccc1)C(=O)N[C@@H](CCCNC(=N)N)C(=O)N[C@@H](Cc1c[nH]c2ccccc12)C(=O)N[C@@H](CC(=O)O)C(=O)N[C@@H](CCCNC(=N)N)C(=O)N[C@@H](Cc1ccccc1)C(=O)NCC(N)=O [[DPhe^6]-γ-MSH, H-Tyr-Val-Nle-Gly-Pro-DPhe-Arg-Trp-Asp-Arg-Phe-Gly-NH2]
hMC4R/TM3 hMC1R
  EC50: 3.3 ± 0.5 nM
hMC4R/TM3 hMC1R; Fig. 3B, 3D
  cAMP potency (in words): did not significantly alter [DPhe^6]-γ-MSH potency
hMC1R WT
  EC50: 2.3 ± 0.5 nM
hMC1R WT; Fig. 2B, 2D
  cAMP production, potency and agonism (in words): dose-dependently increased cAMP generation; also recorded: non selective agonist for the MC1R and MC4R
hMC4R/TM6 hMC1R
  EC50: 3.2 ± 0.3 nM
hMC4R/TM6 hMC1R; Fig. 4B, 4D
  cAMP potency (in words): did not significantly alter [DPhe^6]-γ-MSH potency
hMC4R/TM2 hMC1R
  EC50: 2.9 ± 0.3 nM
hMC4R/TM2 hMC1R; Fig. 3B, 3D
  cAMP potency (in words): did not significantly alter [DPhe^6]-γ-MSH potency
hMC4R/TM5 hMC1R
  cAMP potency (in words): did not significantly alter [DPhe^6]-γ-MSH potency
hMC4R/TM4 hMC1R
  EC50: 3.1 ± 0.3 nM
hMC4R/TM4 hMC1R; Figs. 3 and 4
  cAMP potency (in words): did not significantly alter [DPhe^6]-γ-MSH potency
hMC4R WT
  EC50: 35 nM
hMC4R WT; Fig. 2B, 2D
  cAMP production, potency and agonism (in words): dose-dependently increased cAMP generation; also recorded: non selective agonist for the MC1R and MC4R
